Measurements taken from patent EP4653017A1, “ANTIBODY-DRUG CONJUGATE AND USE THEREOF” (Tyligand Bioscience (Shanghai) Limited, priority 2023, dated 2024).
Counter-ions that a name gives are not always drawn.

What was measured:
A20 = test: Inhibition of tumor cell line proliferation (Table 3), A20; format: cell-based; details: A20, Mouse B lymphoma cells
B16F10 = test: Inhibition of tumor cell line proliferation (Table 3), B16F10; format: cell-based; details: B16-F10; B16F10, Mouse melanoma cells
Daudi = test: Inhibition of tumor cell line proliferation (Table 3), Daudi; format: cell-based; details: Human Burkitt's lymphoma cells
FaDu = test: Inhibition of tumor cell line proliferation (Table 3), FaDu; format: cell-based; details: Human pharyngeal squamous carcinoma cell
H22 = test: Inhibition of tumor cell line proliferation (Table 3), H22; format: cell-based; details: H22, Mouse hepatoma cells
MC38 = test: Inhibition of tumor cell line proliferation (Table 3), MC38; format: cell-based; details: MC-38; MC38, Mouse colon cancer cells
4T1 = test: Inhibition of tumor cell line proliferation (Table 3), 4T1; format: cell-based; details: 4T1, Mouse breast cancer cells
CT26 cells = test: CT26 syngeneic mouse bilateral transplanted tumor model; format: in vivo, BALB/c mice; details: left (untreated) tumor; 50 µg compound/mouse (2.5 mg/kg) intratumorally into right flank on days 0 and 4; day 13 after treatment
Procedure: When tumors grew to an average volume of 100 mm^3, treatments were randomized and started based on tumor size and mouse body weight. The first day of dosing was Day 0. Two doses were administered, 50 µg compound/mouse (i.e., 2.5 mg/kg) was injected intratumorally into the right flank on days 0 and 4, and the same volume of PBS (Hyclone Company, Cat. No. #SH30258.01) was used as a control. The left tumor was left untreated. Control mice were sacrificed after 13 days of dosing and treated mice were sacrificed 21 days later. During the experiment, the tumor volume and body weight were measured three times a week on the left and right sides, and the tumor volume was calculated as V = D × d × d/2 (wherein D represents the long diameter of the tumor and d represents the short diameter of the tumor).

[1] = tested on: lymphoma Raji-hClaudin 18.2 cells; test: Inhibition of Raji-hClaudin 18.2 cell proliferation (CTG assay); format: cell-based
Procedure: Raji-hClaudin 18.2 cells (provided by Elpiscience) were cultured at 37°C, 5% CO2 and 95% humidity in RPMI 1640 + 10% FBS (ExCell Bio, Cat. No. #FND500) + 10 ug/mL Blasticidin (Beyotime, Cat. No. #ST-018), the cells in logarithmic growth phase were harvested and counted, and cell viability was measured using Countstar automated cell counter based on classical trypan blue staining principle to ensure that the cell viability was above 90%. The cell concentration was adjusted, 135 µL of cell suspension was added into 96 well clear flat bottom black wall plate (Corning, Cat. No. #3904), 10000/well, and the cells were incubated in 96 well plate at 37°C and 5% CO2.
The cells in the 96 well plates that had been dosed were incubated at 37°C, 5% CO2 for 5 days before performing CTG assay. The plate was equilibrated to room temperature for 30 min and CTG Reagent (CellTiter-Glo® Luminescent Cell Viability Assay (Promega, Cat. No. #G7573) was melt, 50 µL of CTG Solution was added to each well, and shaked on an orbital shaker for 2 min to lyse the cells. The plate was left at room temperature for 10 min to stabilize the cold light signal and the cold light value was read (EnVision ® Multifunctional Plate Reader, PerkinElmer#2105). [formula] […]

[2] = tested on: human ovarian cancer SK-OV-3; test: SK-OV-3 subcutaneous xenograft model, Example 7 (ADC-1, ADC-2); format: in vivo, BALB/c Nude mice; details: 0.1 mg/kg; for Tumor growth inhibition (TGI) / Rate of complete tumor regression (TV = 0 mm^3): Day 21; for Rate of complete tumor regression (TV = 0 mm^3): 5 mice
Procedure: 0.1 mL (1×10^7) of human ovarian cancer SK-OV-3 cells (purchased from ATCC, Cat#HTB-77) (PBS: matrigel volume ratio of 1:1) was subcutaneously inoculated into the right posterior back of each mouse (BALB/c Nude mice, 6-8 weeks old, female, Jiangsu GemPharmatech Co., Ltd.). When the mean tumor volume reached approximately 150 mm^3, the mice were randomly divided into 9 experimental groups, with 5 mice in each group. […] Group 9 was received intratumoral injection of CDN-3 0.1 mg/kg on Days 0, 4, and 7 of the study for a total of 3 drug doses (see Table 4 for animal grouping). The vehicle was a PBS buffer. Tumor volume and body weight were measured twice weekly during the experimental period, and data was recorded. Tumor volume was calculated according to the formula in Example 3.

Nc1nc2c(ncn2[C@@H]2O[C@@H]3CO[P@@](=O)(S)O[C@H]4[C@H](F)[C@H](n5cnc6c(N)nc(Cl)nc65)O[C@@H]4CO[P@@](=O)(S)O[C@@H]2[C@@H]3O)c(=O)[nH]1 [CDN-3, (2',3')-cyclo-(Rp,Rp)-[2'-O-thiophosphodiester-guanosine]-[3'-O-thiophosphodiester-2-chloro-2'-deoxy-2'-fluoro-beta-adenosine]diammonium salt]
IC50 (A20): 32 nM | IC50 (B16F10): 8700 nM | IC50 (Daudi): 423 nM | IC50 (FaDu): 499 nM | IC50 (H22): 982 nM | IC50 (MC38): 1020 nM | IC50 (4T1): 2270 nM | growth inhibition rates of left tumors (CT26 cells): 91.2% | inhibition effects on Raji-hClaudin 18.2 cell proliferation (in words) [1]: strong inhibition effects | IC50 ([1]; 120 h, Raji-hClaudin 18.2, 5 days incubation, top concentration 600 nM): 131 nM | Tumor Volume (mm^3, Day 21) ([2]; i.t., day 0, 4, 7): 540 ± 47 mm^3 | Tumor growth inhibition (TGI) ([2]; i.t., day 0, 4, 7): 39% | Rate of complete tumor regression (TV = 0 mm^3) ([2]; i.t., day 0, 4, 7): 0% (0/5) | Tumor Volume (mm^3, Day 21) ([2]; i.v., day0): 723 ± 140 mm^3 | Tumor growth inhibition (TGI) ([2]; i.v., day0): 10% | Rate of complete tumor regression (TV = 0 mm^3) ([2]; i.v., day0): 0% (0/5)
